Laboratory results published in patent US6673812B1, “Preventives/remedies for glaucoma” (Senju Pharmaceutical Co., Ltd., priority 1998, dated 2004).

Tested on: Japanese white rabbits
Test: Ophthalmic disorder caused by 8-time-a-day instillation to white rabbits: macroscopic observation of anterior segment of the eye
Format: in vivo, rabbit
Set-up: scale not given here
Settings: mean of three eyes
Protocol: The test drugs, Compound A and Compound C, were each dissolved in the following base at a concentration of 0.125, 0.25, 0.5 and 1.0% and adjusted to pH 7 for use in this experiment. [table] Japanese white rabbits (body weight about 2 kg) purchased from Japan Laboratory Animals, INC. were used. These animals were bred in a breeding chamber set to temperature 23±3° C., humidity 55±10% and fed on limited amount of 100 g a day of a solid feed (Labo R Stock, Nihon-Nosan Kogyo K.K.). They were allowed free access to tap water. Instillation: Using a micropipet, each test drug (100 μl) was instilled into the right eye of each animal 8 times at one hour intervals. Into the left eye was instilled a base in the same manner. Observation: anterior segment of the eye was macroscopically observed before instillation and 30 min after 2nd, 4th, 6th and 8th administrations, according to the macroscopic criteria for ocular lesions as shown in Table 1 (Naruyuki Fukui, […] no Rinshou 4, 277-289, 1970). In addition, corneal staining spot was observed before instillation and after 8th administration. [table]

[1] = 0.125%, 30 min after 2nd instillation
[2] = 0.125%, 30 min after 4th instillation
[3] = 0.125%, 30 min after 6th instillation
[4] = 0.125%, 30 min after 8th instillation
[5] = 0.25%, 30 min after 2nd instillation
[6] = 0.25%, 30 min after 4th instillation
[7] = 0.25%, 30 min after 6th instillation
[8] = 0.25%, 30 min after 8th instillation
[9] = 0.5%, 30 min after 2nd instillation
[10] = 0.5%, 30 min after 4th instillation
[11] = 0.5%, 30 min after 6th instillation
[12] = 0.5%, 30 min after 8th instillation
[13] = 1.0%, 30 min after 2nd instillation
[14] = 1.0%, 30 min after 4th instillation
[15] = 1.0%, 30 min after 6th instillation
[16] = 1.0%, 30 min after 8th instillation

CC(N)[C@H]1CC[C@H](C(=O)Nc2ccncc2)CC1.Cl.Cl.O (single isomer, unassigned; (+)) [Compound A, (+)-trans-4-(1-Aminoethyl)-1-(4-pyridylcarbamoyl)cyclohexane 2HCl 1H2O]
1.33: Score of ocular lesions: Total score [4] | Score of ocular lesions: Conjunctiva Palpebral edema [15]
2.17: Score of ocular lesions: Total score [13] | Score of ocular lesions: Conjunctiva Palpebral redness [16]
0.49: Score of ocular lesions: Total score [9]
2.84: Score of ocular lesions: Total score [14]
1.00: Score of ocular lesions: Total score [6]
10.67: Score of ocular lesions: Total score [16]
5.17: Score of ocular lesions: Total score [11]
0.50: Score of ocular lesions: Total score [1] | Score of ocular lesions: Total score [2] | Score of ocular lesions: Conjunctiva Discharge [3] | Score of ocular lesions: Conjunctiva Palpebral edema [4] | Score of ocular lesions: Conjunctiva Bulbar redness [5] | Score of ocular lesions: Conjunctiva Bulbar redness [6] | Score of ocular lesions: Conjunctiva Nictitating membrane [6] | Score of ocular lesions: Conjunctiva Bulbar redness [7] | Score of ocular lesions: Conjunctiva Discharge [7] | Score of ocular lesions: Conjunctiva Nictitating membrane [7] | Score of ocular lesions: Conjunctiva Nictitating membrane [8] | Score of ocular lesions: Conjunctiva Bulbar redness [9] | Score of ocular lesions: Conjunctiva Bulbar redness [10] | Score of ocular lesions: Conjunctiva Bulbar redness [11] | Score of ocular lesions: Conjunctiva Nictitating membrane [11] | Score of ocular lesions: Conjunctiva Bulbar redness [13] | Score of ocular lesions: Conjunctiva Palpebral redness [13] | Score of ocular lesions: Conjunctiva Bulbar redness [14] | Score of ocular lesions: Conjunctiva Nictitating membrane [14] | Score of ocular lesions: Conjunctiva Palpebral redness [14]
0.84: Score of ocular lesions: Total score [5]
1.50: Score of ocular lesions: Total score [7] | Score of ocular lesions: Total score [10] | Score of ocular lesions: Conjunctiva Bulbar redness [16]
2.33: Score of ocular lesions: Conjunctiva Discharge [16]
0.17: Score of ocular lesions: Conjunctiva Palpebral redness [1] | Score of ocular lesions: Conjunctiva Discharge [2] | Score of ocular lesions: Conjunctiva Nictitating membrane [4] | Score of ocular lesions: Conjunctiva Nictitating membrane [5] | Score of ocular lesions: Conjunctiva Palpebral redness [5] | Score of ocular lesions: Conjunctiva Discharge [6] | Score of ocular lesions: Conjunctiva Palpebral edema [7] | Score of ocular lesions: Conjunctiva Palpebral edema [9] | Score of ocular lesions: Conjunctiva Palpebral redness [9] | Score of ocular lesions: Conjunctiva Palpebral edema [10] | Score of ocular lesions: Conjunctiva Palpebral redness [10] | Score of ocular lesions: Conjunctiva Bulbar redness (0.5%, Before instillation) | Score of ocular lesions: Total score (0.5%, Before instillation) | Score of ocular lesions: Conjunctiva Nictitating membrane [13] | Score of ocular lesions: Conjunctiva Palpebral redness (1.0%, Before instillation) | Score of ocular lesions: Total score (1.0%, Before instillation)
2.67: Score of ocular lesions: Conjunctiva Discharge [11]
1.66: Score of ocular lesions: Total score [8]
0.67: Score of ocular lesions: Conjunctiva Palpebral redness [11] | Score of ocular lesions: Conjunctiva Nictitating membrane [12] | Score of ocular lesions: Conjunctiva Palpebral edema [12] | Score of ocular lesions: Conjunctiva Palpebral redness [12] | Score of ocular lesions: Conjunctiva Palpebral edema [13] | Score of ocular lesions: Conjunctiva Discharge [14] | Score of ocular lesions: Conjunctiva Palpebral edema [14] | Score of ocular lesions: Conjunctiva Nictitating membrane [15]
1.17: Score of ocular lesions: Conjunctiva Discharge [12] | Score of ocular lesions: Conjunctiva Bulbar redness [15]
4.01: Score of ocular lesions: Total score [12]
3.00: Score of ocular lesions: Conjunctiva Palpebral edema [16]
5.67: Score of ocular lesions: Total score [15]
1.99: Score of ocular lesions: Total score [3]
1.67: Score of ocular lesions: Conjunctiva Discharge [15] | Score of ocular lesions: Conjunctiva Nictitating membrane [16]
0: Score of ocular lesions: Conjunctiva Discharge [1] | Score of ocular lesions: Conjunctiva Nictitating membrane [1] | Score of ocular lesions: Conjunctiva Palpebral edema [1] | Score of ocular lesions: Cornea Area [1] | Score of ocular lesions: Cornea Degree [1] | Score of ocular lesions: Iris Values [1] | Score of ocular lesions: Conjunctiva Nictitating membrane [2] | Score of ocular lesions: Conjunctiva Palpebral edema [2] | Score of ocular lesions: Conjunctiva Palpebral redness [2] | Score of ocular lesions: Cornea Area [2] | Score of ocular lesions: Cornea Degree [2] | Score of ocular lesions: Iris Values [2] | Score of ocular lesions: Conjunctiva Nictitating membrane [3] | Score of ocular lesions: Cornea Area [3] | Score of ocular lesions: Cornea Degree [3] | Score of ocular lesions: Iris Values [3] | Score of ocular lesions: Conjunctiva Discharge [4] | Score of ocular lesions: Cornea Area [4] | Score of ocular lesions: Cornea Degree [4] | Score of ocular lesions: Iris Values [4] | Score of ocular lesions: Conjunctiva Bulbar redness (0.125%, Before instillation) | Score of ocular lesions: Conjunctiva Discharge (0.125%, Before instillation) | Score of ocular lesions: Conjunctiva Nictitating membrane (0.125%, Before instillation) | Score of ocular lesions: Conjunctiva Palpebral edema (0.125%, Before instillation) | Score of ocular lesions: Conjunctiva Palpebral redness (0.125%, Before instillation) | Score of ocular lesions: Cornea Area (0.125%, Before instillation) | Score of ocular lesions: Cornea Degree (0.125%, Before instillation) | Score of ocular lesions: Iris Values (0.125%, Before instillation) | Score of ocular lesions: Total score (0.125%, Before instillation) | Score of ocular lesions: Conjunctiva Discharge [5] | Score of ocular lesions: Conjunctiva Palpebral edema [5] | Score of ocular lesions: Cornea Area [5] | Score of ocular lesions: Cornea Degree [5] | Score of ocular lesions: Iris Values [5] | Score of ocular lesions: Conjunctiva Palpebral edema [6] | Score of ocular lesions: Conjunctiva Palpebral redness [6] | Score of ocular lesions: Cornea Area [6] | Score of ocular lesions: Cornea Degree [6] | Score of ocular lesions: Iris Values [6] | Score of ocular lesions: Cornea Area [7] | Score of ocular lesions: Cornea Degree [7] | Score of ocular lesions: Iris Values [7] | Score of ocular lesions: Conjunctiva Discharge [8] | Score of ocular lesions: Conjunctiva Palpebral edema [8] | Score of ocular lesions: Cornea Area [8] | Score of ocular lesions: Cornea Degree [8] | Score of ocular lesions: Iris Values [8] | Score of ocular lesions: Conjunctiva Bulbar redness (0.25%, Before instillation) | Score of ocular lesions: Conjunctiva Discharge (0.25%, Before instillation) | Score of ocular lesions: Conjunctiva Nictitating membrane (0.25%, Before instillation) | Score of ocular lesions: Conjunctiva Palpebral edema (0.25%, Before instillation) | Score of ocular lesions: Conjunctiva Palpebral redness (0.25%, Before instillation) | Score of ocular lesions: Cornea Area (0.25%, Before instillation) | Score of ocular lesions: Cornea Degree (0.25%, Before instillation) | Score of ocular lesions: Iris Values (0.25%, Before instillation) | Score of ocular lesions: Total score (0.25%, Before instillation) | Score of ocular lesions: Conjunctiva Discharge [9] | Score of ocular lesions: Conjunctiva Nictitating membrane [9] | Score of ocular lesions: Cornea Area [9] | Score of ocular lesions: Cornea Degree [9] | Score of ocular lesions: Iris Values [9] | Score of ocular lesions: Cornea Area [10] | Score of ocular lesions: Cornea Degree [10] | Score of ocular lesions: Iris Values [10] | Score of ocular lesions: Cornea Area [11] | Score of ocular lesions: Cornea Degree [11] | Score of ocular lesions: Iris Values [11] | Score of ocular lesions: Cornea Area [12] | Score of ocular lesions: Cornea Degree [12] | Score of ocular lesions: Iris Values [12] | Score of ocular lesions: Conjunctiva Discharge (0.5%, Before instillation) | Score of ocular lesions: Conjunctiva Nictitating membrane (0.5%, Before instillation) | Score of ocular lesions: Conjunctiva Palpebral edema (0.5%, Before instillation) | Score of ocular lesions: Conjunctiva Palpebral redness (0.5%, Before instillation) | Score of ocular lesions: Cornea Area (0.5%, Before instillation) | Score of ocular lesions: Cornea Degree (0.5%, Before instillation) | Score of ocular lesions: Iris Values (0.5%, Before instillation) | Score of ocular lesions: Cornea Area [13] | Score of ocular lesions: Cornea Degree [13] | Score of ocular lesions: Iris Values [13] | Score of ocular lesions: Cornea Area [14] | Score of ocular lesions: Cornea Degree [14] | Score of ocular lesions: Iris Values [14] | Score of ocular lesions: Cornea Area [15] | Score of ocular lesions: Cornea Degree [15] | Score of ocular lesions: Iris Values [15] | Score of ocular lesions: Cornea Area [16] | Score of ocular lesions: Cornea Degree [16] | Score of ocular lesions: Iris Values [16] | Score of ocular lesions: Conjunctiva Bulbar redness (1.0%, Before instillation) | Score of ocular lesions: Conjunctiva Discharge (1.0%, Before instillation) | Score of ocular lesions: Conjunctiva Nictitating membrane (1.0%, Before instillation) | Score of ocular lesions: Conjunctiva Palpebral edema (1.0%, Before instillation) | Score of ocular lesions: Cornea Area (1.0%, Before instillation) | Score of ocular lesions: Cornea Degree (1.0%, Before instillation) | Score of ocular lesions: Iris Values (1.0%, Before instillation)
0.33: Score of ocular lesions: Conjunctiva Bulbar redness [1] | Score of ocular lesions: Conjunctiva Bulbar redness [2] | Score of ocular lesions: Conjunctiva Bulbar redness [3] | Score of ocular lesions: Conjunctiva Palpebral edema [3] | Score of ocular lesions: Conjunctiva Palpebral redness [3] | Score of ocular lesions: Conjunctiva Bulbar redness [4] | Score of ocular lesions: Conjunctiva Palpebral redness [4] | Score of ocular lesions: Conjunctiva Palpebral redness [7] | Score of ocular lesions: Conjunctiva Palpebral redness [8] | Score of ocular lesions: Conjunctiva Discharge [10] | Score of ocular lesions: Conjunctiva Nictitating membrane [10] | Score of ocular lesions: Conjunctiva Discharge [13]
0.83: Score of ocular lesions: Conjunctiva Bulbar redness [8] | Score of ocular lesions: Conjunctiva Palpebral edema [11] | Score of ocular lesions: Conjunctiva Bulbar redness [12] | Score of ocular lesions: Conjunctiva Palpebral redness [15]
